B1: recombinant IL-17a protein: Recombinant mouse IL-17a cytokine (R&D), injected into the fetal brain ventricle (protein, UniProt Q62386 26-158, looked up)
Interleukin-17A: AAIIPQSSACPNTEAKDFLQNVKVNLKVFNSLGAKVSSRRPSDYLNRSTSPWTLHRNEDPDRYPSVIWEAQCRHQRCVNAEGKLDHHMNSVLIQQEILVLKREPESCPFTFRVEKMLVGVGCTCVASIVRQAA

Assays:
[1] = tested on: offspring of pregnant mice (MIA mouse model); experiment: Marble burying test in adult offspring; format: in vivo
Source text: Maternal Immune Activation. Mice were mated overnight and females were checked daily for the presence of seminal plugs, noted as embryonic day 0.5 (E0.5). […] Each dam was returned to its cage and left undisturbed until the birth of its litter. All pups remained with the mother until weaning on postnatal day 21 (P21), at which time mice were group housed at maximum 5 per cage with same-sex littermates. […]
(§1) Marble burying test. […] At the end of a 15-min exploration period, mice were gently removed from the testing cages and the number of marbles buried was recorded. A marble burying index was scored as 1 for marbles covered >50% by bedding, 0.5 for ˜50% covered, or 0 for anything less. […]
as §1, with “test One week following the social approach task, male mice were acclimated for 0.5-1 h in separate clean holding cages.” for “test.”

TNF-α = TNF-α ELISA of maternal serum; format: in vivo, mouse; settings: poly(I:C) at E12.5, 3 h, vs PBS
Method: Cell preparation, Flow cytometry, ELISA Embryos at each implantation site were dissected in ice-cold HBSS containing Ca2+ and Mg2+ (Gibco). Myometrium was first peeled off of the decidua and embryos were discarded. Dissected decidual and placental tissues were then minced and enzymatically dissociated in HBSS containing 0.28 Wunsch units (WU)/mL Liberase (Roche) and 30 μg/mL DNase I (Roche) for 30 min at 37° C. with intermittent mixing. Digested tissues were washed in PBS containing 5 mM EDTA and 5% fetal bovine serum and then incubated again in the same buffer for 15 min at 37° C. prior to filtration through a cell strainer. […] Intracellular cytokine staining was performed according to the manufacturer's protocol (Cytofix/Cytoperm buffer set from BD with Pacific Blue-conjugated CD4, FITC or PerCP-Cy5.5-conjugated CD8, APC4 Cy7-conjugated TCR-β, PE-Cy7-conjugated anti-IL-17a, PE-conjugated anti-IFN-γ, PECy7-conjugated anti-CD25 and PE-conjugated Foxp3 (eBioscience). LSR II (BD Biosciences) and FlowJo software (Tree Star) were used for flow cytometry and analysis. Dead cells were excluded using the Live/Dead fixable aqua dead cell stain kit (Invitrogen). For ELISA with sera and placenta/decidua extract, IL-6 (Ebioscience), IL-17a, TNF-α, IL-1β, IFN-β (Biolgened), and IL-10 (BD) were measured according to the manufacturer's protocol.

Molecule | marble burying in adult offspring ([1]; poly(I:C)-injected vs PBS-injected mothers) | serum TNF-α (TNF-α) | marble burying behavior ([1]; intra-ventricular injection at E14.5, compared with sham injection)
poly(I:C) | enhanced marble burying | strong induction | 
B1 |  |  | increased marble burying behavior
